The values below come from US20110045102A1, “Cancer chemotherapy compositions comprising PI3K pathway modulators and triptolide” (priority 2005, published 2011).

The subject of series [1] is OCC1-SEAP-12 ovarian cancer cells. The series is classed as in vivo. As for the experimental part:
Athymic nude mice were obtained and inoculated intraperitoneally with OCC1-SEAP-12 cells as described above in Examples I and II. Animals received injections of either vehicle control (PBS containing 25% DMSO), or carboplatin (60 mg/kg) alone, or in combination with LY294002 (50 mg/kg) every other day for 6 days. Blood samples were collected into capillary tubes from saphenous vein lancings at regular intervals during and following treatments. Capillary tubes were centrifuged, and the plasma samples were frozen (−20° C.), until the time of SEAP assay. The Washington State University Animal Care and Use Committee approved all procedures.
Blood plasma and cell culture medium samples were assayed for SEAP activity using the Great EscAPe SEAP fluorescence detection kit (Clontech Laboratories, Palo Alto, Calif.) as described above in Examples I and II. Blood plasma samples were diluted 1:100 prior to the assay to bring values within the linear range of the standard curve. The intraassay and interassay coefficients of variation were 2.5% and 18.8%, respectively.

The subject of series [2] is Akt. In words: Western blot for Akt phosphorylation (Example III). The series is classed as cell-based, human. The conditions noted are these: 6 hr and 24 hr; LY294002 10 (FIG. 18 legend: mM), carboplatin 50. As for the experimental part: The OCC1-SEAP-12 cells were grown to 80% confluence. […] […] Total cell lysates were subjected to SDS polyacrylamide gel electrophoresis 9 page) and transferred to PVDF membranes (Millipore, Bedford, Mass.). Membranes were immunoblotted with antibodies to both the phosphorylated and non-phosphorylated forms of […] (Cell Signaling Technology, Beverly, Mass.), or alternatively, with antibodies to cleaved and full length caspase-3 (Cell Signaling Technology, Beverly, Mass.).
Background: A western blot detects proteins with antibodies after separation by electrophoresis.

Series [3] concerns OCC1-SEAP-12 cells. Kind of series: Growth assay, [3H] thymidine incorporation (Example III). The series is classed as cell-based, human. The conditions noted are these: 18h treatment. As for the experimental part: Cell proliferation was analyzed by determining the amount of [^3H] thymidine incorporation Into newly synthesized DNA. The OCC1-SEAP-12 cells were plated in 24 well plates in Ham's F-12 medium plus 10% BCS and allowed to reach 50 to 70% confluence. Following a 48 hr serum starvation, the culture medium was changed to Dulbecco's Modified Eagle Medium (DMEM) plus 0.1% BSA and 0.1% BCS containing either vehicle control or carboplatin (0-100 μg/ml) alone, or in combination with LY294002 (0-20 μM). Treatments were removed after 18h and cells were incubated for 4 hr in medium containing 5 μCi/ml of [^3H] thymidine. Medium was removed and cells were disrupted by sonication in phosphate buffered saline (PBS). An aliquot of the sonicated solution of PBS was loaded onto a DEAE filtration plate (Millipore, Bedford, Mass.), and individual filters with bound DNA were collected for scintillation counting. Data was normalized to total DNA per well and was determined by a SYBR green fluorescent assay (Nilsson E E, Westfall S D, McDonald C, Ligon T, Sadler-Riggleman I, Skinner M K. An in vivo mouse reporter gene (human secreted alkaline phosphatase) model to monitor ovarian tumor growth and response to therapeutics. Cancer Chemother Pharmacol 2002; 49(2):93-100).
On the technique in general: Dividing cells build labelled thymidine or BrdU into new DNA.

Series [4] deals with OCC1-SEAP intraperitoneal tumors. In words: Nude mouse intraperitoneal OCC1-SEAP tumor model, plasma SEAP (Example I). The class given is in vivo, athymic nude mice. The conditions noted are these: established tumors; carboplatin 60 mg/kg three times over 4 days. As for the experimental part:
Athymic nude mice (Nu/Nu; Charles River Laboratories, Wilmington, Mass.) weighing about 25 g were used for in vivo studies.
Three mice were injected intraperitoneally with 1×10^7 OCC1-SEAP-12 cells. The experimental treatments began after 1 week. […] Alternatively, four mice with well-developed tumors (2-4 weeks after injection) were treated with a high dose of carboplatin (60 mg/kg) three times over a period of 4 days. After death all visible intraperitoneal tumors were dissected out and weighed.
Blood samples were collected from saphenous vein lancings three times per week into heparinized capillary tubes. The capillary tubes were centrifuged and the plasma samples were frozen at −20° C. until the time of SEAP assay. Blood samples were taken for SEAP assay from the mice within 24 hours of death 2-3 weeks after intraperitoneal injection of OCC1-SEAP cells.
Blood plasma and cell culture medium samples were assayed for SEAP activity using the Great EscAPe SEAP fluorescence detection kit (Clontech Laboratories, Palo Alto, Calif.). SEAP is secreted at a constant rate by transfected tumor cells and distributed throughout the body or into the culture medium. SEAP is heat stable, so any endogenous alkaline phosphatase activity in blood plasma is destroyed by heat treatment of the samples (65° C. for 30 minutes) during the assay. The SEAP enzyme in each sample acts on the substrate 4-methylumbelliferyl phosphate during a 1 hour incubation at room temperature to produce a fluorescent product with excitation and emission peaks at 360 and 449 nm, respectively. A fluorimeter is then used to measure SEAP activity. The intra-assay and inter-assay coefficients of variation were 2.5% and 18.8%, respectively. Blood plasma samples were diluted 1:100 prior to the assay to bring values within the linear range of the standard curve.

Series [5] concerns caspase-3. In words: Western blot for active caspase-3 (Example II). The class given is cell-based, human. The conditions noted are these: carboplatin alone.
Series [6] concerns OCC1-SEAP ovarian cancer cells. Kind of series: Cell survival by DNA content of culture wells (Example II). The class given is cell-based, human. The conditions noted are these: 48 hours; triptolide 100 ng/ml, carboplatin 50 (FIG. 8 legend: mg/ml). As for the experimental part:
Cell survival was assessed as the number of cells remaining in culture, following exposure to treatments. The DNA content of individual culture wells was used as an indication of cell number. Cells plated in 24 well culture plates were allowed to approach confluence (80%) in Ham's F-12 medium plus 10% BCS. Cultures were then incubated in DMEM, plus 0.1% BSA and 0.1% BCS, in the presence of vehicle control, carboplatin (0-100 μg/ml), Triptolide (100 ng/ml) or a combination of these for 24 to 96 hrs. Media aliquots were taken when appropriate for SEAP analysis. The DNA was measured fluorometrically, as described above, in Example I. Briefly, the fluorescence of an aliquot of sonicated cell suspension, into which SYBR Green I fluorescent dye (Molecular Probes, Eugene, Oreg.), had been incorporated was measured.

Series [7] deals with OCC1-SEAP cell cultures. Kind of series: DNA fragmentation (laddering) on agarose gel (Example II). The series is classed as cell-based, human. The conditions noted are these: 48 hr; TPL 100 ng/ml, carboplatin 50 μg/ml. As for the experimental part:
Following 48 h to 72 h treatment incubations, cells were suspended into culture medium and pelleted in tubes. DNA was isolated from collected cells using a Puregene™ DNA isolation kit (Gentra Systems, Minneapolis, Minn.). The quantity and purity of nucleic acid preparations were estimated by measuring the absorbance of each sample (A260/A280). DNA preparations (10 μg/well) were loaded onto 1.2% agarose gels and visualized with ethidium bromide stain.

Molecules are shown by their SMILES.

For the molecule `N.N.O=C([O-])C1(C(=O)[O-])CCC1.[Pt+2]` [carboplatin], in series [1] (carboplatin 60 mg/kg, alone or with LY294002 50 mg/kg), the drug induced toxicity entry was “muscle wasting and became anemic”. Moreover, in series [1] (physical appearance of mice after treatment), the “abdominal swelling (FIG. 24)” value is recorded as “displayed abdominal swelling”. The “tumor size vs vehicle control (FIG. 23)” value in series [1] (single agents: LY294002 50 mg/kg, carboplatin 60 mg/kg) was “no significant difference”. Also, the Akt phosphorylation result in series [2] is “had not effect”. Also, the “block of basal DNA synthesis” value in series [3] (20 μg/ml carboplatin) amounted to 51%; in series [3] (50 μg/ml carboplatin), 59.5%. Further, the “tumor burden by plasma SEAP levels” value in series [4] is “transiently decreased the tumor burden”. The “time until caspase-3 is activated post-treatment” value in series [5] came to 48 h. Further, the “decrease in cell survival (μg DNA/ml) compared to control cultures” value in series [6] was found to be 30%. The DNA laddering result in series [7] is given as “evident”.
